According to PubChem BioAssay AID743317 (Broad Institute, 2014):
Inconclusive results are not listed. Activity calls are given as the source filed them.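 Rule for the calls: active = fitted curve reaches 40% activation at or below the top valid dose, and every replicate test is called active; inconclusive = replicate tests disagree, some active and some inactive; inactive = all replicate tests inactive, including activity in the wrong direction.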

Target: Endoplasmic reticulum aminopeptidase 1 (Homo sapiens) (UniProt Q9NZ08)
Sequence (Q9NZ08 whole entry, looked up): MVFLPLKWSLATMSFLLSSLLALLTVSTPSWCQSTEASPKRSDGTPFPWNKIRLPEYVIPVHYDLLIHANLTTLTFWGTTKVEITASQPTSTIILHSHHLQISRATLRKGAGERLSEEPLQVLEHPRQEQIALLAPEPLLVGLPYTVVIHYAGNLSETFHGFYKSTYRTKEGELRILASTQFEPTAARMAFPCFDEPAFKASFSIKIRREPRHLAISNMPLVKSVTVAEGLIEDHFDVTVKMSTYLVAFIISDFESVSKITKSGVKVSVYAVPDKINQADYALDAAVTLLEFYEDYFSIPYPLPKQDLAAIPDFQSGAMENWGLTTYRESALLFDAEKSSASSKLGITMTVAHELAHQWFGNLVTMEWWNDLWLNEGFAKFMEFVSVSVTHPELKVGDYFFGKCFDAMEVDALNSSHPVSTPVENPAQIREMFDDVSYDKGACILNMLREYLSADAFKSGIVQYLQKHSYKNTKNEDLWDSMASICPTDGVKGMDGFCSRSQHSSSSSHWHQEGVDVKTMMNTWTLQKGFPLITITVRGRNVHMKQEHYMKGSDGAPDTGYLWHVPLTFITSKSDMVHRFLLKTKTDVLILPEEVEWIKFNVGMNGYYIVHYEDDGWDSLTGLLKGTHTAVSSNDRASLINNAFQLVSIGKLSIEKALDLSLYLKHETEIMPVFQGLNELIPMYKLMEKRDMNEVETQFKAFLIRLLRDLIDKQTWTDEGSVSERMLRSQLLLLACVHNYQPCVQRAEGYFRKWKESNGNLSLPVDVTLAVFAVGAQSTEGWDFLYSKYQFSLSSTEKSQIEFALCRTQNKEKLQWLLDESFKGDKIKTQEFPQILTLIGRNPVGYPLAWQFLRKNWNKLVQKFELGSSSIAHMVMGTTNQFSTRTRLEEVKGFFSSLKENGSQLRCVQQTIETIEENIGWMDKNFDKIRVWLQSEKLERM
Assay: ERAP1 aminopeptidase activity change, dose response, biochemical, fluorescence, cherry-pick (AID 743317)
Conditions: ERAP1 enzyme, Leu-AMC fluorescence, 60 min

Compound	AC40 [nM]	other results
COc1ccc(CN(C)C[C@@H]2OCCCC[C@@H](C)Oc3ccc(NS(=O)(=O)c4c(C)noc4C)cc3C(=O)N([C@@H](C)CO)C[C@@H]2C)cc1	1880	–
Cc1cc(=O)oc2c(CN3CCCC3)c(O)ccc12	–	activity increase (activation) (at 11 µM (top of the series)): -44% (inactive)
CCCN(C)C[C@@H]1OCCCC[C@@H](C)Oc2ccc(NS(=O)(=O)c3c(C)noc3C)cc2C(=O)N([C@H](C)CO)C[C@@H]1C	1240	–
C[C@H](CO)N1C[C@H](C)[C@@H](CN(C)C)Oc2c(NC(=O)Nc3ccc(C(F)(F)F)cc3)cccc2C1=O	762	–
CNC[C@H]1Oc2c(NC(=O)Nc3ccc(C(F)(F)F)cc3)cccc2C(=O)N([C@@H](C)CO)C[C@@H]1C	646	–
N#Cc1c(N)n(CCNC(=O)c2ccccc2)c2nc3ccccc3nc12	10000	–
Cc1ccc(-c2cc(C(=O)N3CCCC3)c3ccccc3n2)s1	6450	–
Cc1cc(=O)oc2c(CN3CCCC3)c(O)c(Cl)cc12	–	activity increase (activation) (at 11 µM (top of the series)): -73.8% (inactive)
Cc1cc(=O)oc2c(CN3CCCCC3)c(O)ccc12	–	activity increase (activation) (at 11 µM (top of the series)): -81.1% (inactive)
CCCNC(=O)C[C@H]1CC[C@@H]2[C@H](COC[C@H](O)CN2C(=O)Nc2cccc(Cl)c2)O1	3410	–
C[C@@H]1CCCCO[C@@H](CN(C)C)[C@H](C)CN([C@@H](C)CO)C(=O)c2cc(NC(=O)Nc3ccc(C(F)(F)F)cc3)ccc2O1	516	–
COc1ccc(NC(=O)Nc2cccc3c2O[C@H](CN(C)Cc2ccc(C(=O)O)cc2)[C@H](C)CN([C@H](C)CO)C3=O)cc1	5250	–
COc1ccc(NC(=O)Nc2ccc3c(c2)C(=O)N([C@@H](C)CO)C[C@@H](C)[C@H](CN(C)Cc2ccc(C(=O)O)cc2)OCCCC[C@H](C)O3)cc1	3740	–
CCCCc1cc(=O)oc2cc(O)ccc12	–	activity increase (activation) (at 11 µM (top of the series)): -62.4% (inactive)
C[C@@H]1CCCCO[C@@H](CN(C)Cc2ccc(C(=O)O)cc2)[C@@H](C)CN([C@H](C)CO)C(=O)c2cc(NC(=O)Nc3cccc4ccccc34)ccc2O1	408	–
Cc1noc(C)c1NC(=O)N(C)C[C@@H]1Oc2c(NC(=O)Nc3ccccc3)cccc2C(=O)N([C@H](C)CO)C[C@@H]1C	6450	–
CC(C)[C@@H](C(=O)N[C@@H](CCc1ccc(O)cc1)C(=O)O)N(C)C(=O)[C@H](CO)NC(=O)[C@@H](O)[C@H](N)CCCCCCCCl	–	activity increase (activation) (at 11 µM (top of the series)): -103% (inactive)
O=c1cc(CN2CCOCC2)c2cc(Cl)c(O)cc2o1	4840	–
CCCNC(=O)N(C)C[C@@H]1Oc2ncc(-c3ccncc3)cc2C(=O)N([C@H](C)CO)C[C@@H]1C	–	activity increase (activation) (at 11 µM (top of the series)): -31.8% (inactive)
COc1ccc(CN(C)C[C@H]2OCCCC[C@@H](C)Oc3ccc(NS(=O)(=O)c4cccs4)cc3C(=O)N([C@@H](C)CO)C[C@H]2C)cc1	1110	–
CSC1=NS(=O)(=O)c2c(C)nn(C)c2S1	–	activity increase (activation) (at 11 µM (top of the series)): -42.5% (inactive)
CC(=O)Oc1cc2oc(=O)cc(C)c2cc1Cl	1020	–
COc1ccc(CN(C)C[C@H]2OCCCC[C@@H](C)Oc3ccc(NS(=O)(=O)c4cccs4)cc3C(=O)N([C@@H](C)CO)C[C@@H]2C)cc1	4590	–
CCN(CC)Cc1c(O)ccc2cc(-c3nc4ccccc4n3C)c(=O)oc12	–	activity increase (activation) (at 11 µM (top of the series)): -105% (inactive)
Cc1c(O)ccc2c(CN3CCN(Cc4ccccc4)CC3)cc(=O)oc12	4100	–

Compound	AC40 [nM]	other results
C[C@@H]1CCCCO[C@H](CN(C)Cc2ccc(C(=O)O)cc2)[C@H](C)CN([C@@H](C)CO)C(=O)c2cc(NC(=O)Nc3ccc(C(F)(F)F)cc3)ccc2O1	91.9	–
Cc1noc(C)c1S(=O)(=O)N(C)C[C@@H]1OCCCC[C@@H](C)Oc2ccc(NS(=O)(=O)c3cccs3)cc2C(=O)N([C@@H](C)CO)C[C@@H]1C	< 80	–
CCCN(C)C[C@@H]1OCCCC[C@@H](C)Oc2ccc(NS(=O)(=O)c3ccc(F)cc3)cc2C(=O)N([C@H](C)CO)C[C@@H]1C	3880	–
Cc1cc(=O)oc2cc(NS(=O)(=O)c3ccc(F)cc3)ccc12	–	activity increase (activation) (at 11 µM (top of the series)): -52% (inactive)
O=C(C[C@@H]1CC[C@@H]2[C@H](COC[C@H](O)CN2C(=O)Nc2cccc(Cl)c2)O1)N1CCCCC1	364	–
O=S(=O)(O)c1ccc(N2N=C(c3ccccc3)CC2c2ccccc2)cc1 (centres undefined)	4310	–
COC(=O)Cc1c(C)c2ccc(O)c(CNCc3ccc(OC)c(OC)c3)c2oc1=O	–	activity increase (activation) (at 5.6 µM (top of the series)): -74.1% (inactive)
C[C@@H]1CCCCO[C@@H](CN(C)C)[C@@H](C)CN([C@@H](C)CO)C(=O)c2cc(NS(=O)(=O)c3ccc(Cl)cc3)ccc2O1	636	–
CCN1CCN(Cc2c(O)ccc3c(C)cc(=O)oc23)CC1	–	activity increase (activation) (at 11 µM (top of the series)): -54.6% (inactive)
C[C@@H]1CCCCO[C@H](CN(C)Cc2ccc(C(=O)O)cc2)[C@@H](C)CN([C@H](C)CO)C(=O)c2cc(NC(=O)Nc3ccc(C(F)(F)F)cc3)ccc2O1	< 160	–
Cc1noc(C)c1S(=O)(=O)Nc1ccc2c(c1)C(=O)N([C@H](C)CO)C[C@H](C)[C@H](CN(C)Cc1ccc3c(c1)OCO3)OCCCC[C@@H](C)O2	2350	–
Cc1ccc(S(=O)(=O)c2cc3ccc(O)cc3oc2=O)cc1C	2990	–
C[C@H]1CN([C@@H](C)CO)C(=O)c2cccc(NC(=O)Nc3ccc(C(F)(F)F)cc3)c2O[C@@H]1CN(C)CC1CC1	541	–
C[C@@H]1CN([C@H](C)CO)C(=O)c2cc(NC(=O)Nc3ccc(F)cc3)ccc2O[C@H]1CN(C)Cc1ccc(C(=O)O)cc1	484	–
CCCc1cc(=O)oc2c(CN3CCN(C)CC3)c(O)ccc12	–	activity increase (activation) (at 5.6 µM (top of the series)): -44.3% (inactive)
Cc1cc(=O)oc2cc(OCC(=O)N3CCN(C(C)c4ccccc4)CC3)c(Cl)cc12 (centres undefined)	6220	–
C[C@@H]1CCCCO[C@@H](CN(C)Cc2ccc(C(=O)O)cc2)[C@H](C)CN([C@@H](C)CO)C(=O)c2cc(NS(=O)(=O)c3ccc(Cl)cc3)ccc2O1	3660	–
C[C@@H]1CN([C@@H](C)CO)C(=O)c2cccc(NC(=O)Nc3ccc(C(F)(F)F)cc3)c2O[C@@H]1CN(C)C	–	activity increase (activation) (at 11 µM (top of the series)): 30.6% (inactive)
Cc1noc(C)c1NC(=O)N(C)C[C@@H]1Oc2c(NC(=O)Nc3ccc(F)cc3)cccc2C(=O)N([C@H](C)CO)C[C@@H]1C	5640	–
O=c1cc(CN2CCN(Cc3ccccc3)CC2)c2ccc(O)cc2o1	1680	–
C[C@@H]1CCCCO[C@@H](CN(C)Cc2ccc3c(c2)OCO3)[C@@H](C)CN([C@H](C)CO)C(=O)c2cc(NS(=O)(=O)c3cccs3)ccc2O1	< 80	–
O=c1ccc2cc(O[C@@H]3O[C@H](CO)[C@@H](O)[C@H](O)[C@H]3O)c(O)cc2o1	–	activity increase (activation) (at 11 µM (top of the series)): -98.9% (inactive)
Cc1c(O)ccc2cc(S(=O)(=O)c3ccccc3)c(=O)oc12	–	activity increase (activation) (at 11 µM (top of the series)): -94% (inactive)
Cc1cc(=O)oc2c(CN3CCN(C)CC3)c(O)c(Cl)cc12	–	activity increase (activation) (at 11 µM (top of the series)): -69.3% (inactive)
C[C@@H]1CCCCO[C@@H](CN(C)Cc2ccc3c(c2)OCO3)[C@@H](C)CN([C@@H](C)CO)C(=O)c2cc(NS(=O)(=O)c3ccccc3)ccc2O1	563	–

Compound	AC40 [nM]	other results
C[C@@H]1CCCCO[C@@H](CN(C)C)[C@@H](C)CN([C@@H](C)CO)C(=O)c2cc(NS(=O)(=O)c3ccc(F)cc3)ccc2O1	454	–
COc1cccc(CN(C)Cc2cc(=O)oc3cc(O)c(Cl)cc23)c1	2900	–
CCCN(C)C[C@@H]1OCCCC[C@@H](C)Oc2ccc(NS(=O)(=O)c3cccs3)cc2C(=O)N([C@H](C)CO)C[C@@H]1C	107	–
COc1ccc(CN(C)C[C@@H]2OCCCC[C@@H](C)Oc3ccc(NS(=O)(=O)c4cccs4)cc3C(=O)N([C@H](C)CO)C[C@H]2C)cc1	1150	–
Cc1cc2nc(-c3ccc[nH]c3=O)[nH]c2cc1C	–	activity increase (activation) (at 5.6 µM (top of the series)): -30.6% (inactive)
CCCCCCC[C@H](N)[C@H](O)C(=O)N(C)[C@@H](CCS(C)=O)C(=O)N[C@@H](Cc1ccc(O)cc1)C(=O)N[C@@H](Cc1ccc(O)cc1)C(=O)O (some centres undefined)	–	activity increase (activation) (at 11 µM (top of the series)): -57.4% (inactive)
O=c1oc2cc(O)ccc2cc1S(=O)(=O)c1ccccc1	–	activity increase (activation) (at 11 µM (top of the series)): 349% (inactive)
O=c1ccc2cc(O)c(O)cc2o1	–	activity increase (activation) (at 11 µM (top of the series)): -53.9% (inactive)
C[C@@H]1CCCCO[C@@H](CN(C)CC2CC2)[C@@H](C)CN([C@H](C)CO)C(=O)c2cc(NS(=O)(=O)c3ccc(Cl)cc3)ccc2O1	97.3	–
CCCc1cc(=O)oc2c(CN(CC)CC)c(O)c(Cl)cc12	–	activity increase (activation) (at 11 µM (top of the series)): -58.6% (inactive)
O=S(=O)(c1ccc(N2CCC(c3ccc(Cl)cc3)=N2)cc1)N(CCO)CCO	–	activity increase (activation) (at 11 µM (top of the series)): -40.9% (inactive)
COc1ccc(CN(C)C[C@@H]2OCCCC[C@@H](C)Oc3ccc(NS(=O)(=O)c4cccs4)cc3C(=O)N([C@@H](C)CO)C[C@H]2C)cc1	577	–
C[C@@H]1CN([C@H](C)CO)C(=O)c2cccc(NC(=O)Nc3ccccc3)c2O[C@@H]1CN(C)Cc1ccc(C(=O)O)cc1	3610	–
Cc1ccc2nc3c(cc(C(=O)NCc4ccccc4)c(=N)n3CCCn3ccnc3)c(=O)n2c1	8840	–
CCc1c(C)c2cc(Cl)c(O)c(CN(C)C)c2oc1=O	–	activity increase (activation) (at 11 µM (top of the series)): -92.5% (inactive)
COc1ccc(CN(C)C[C@@H]2OCCCC[C@H](C)Oc3ccc(NS(=O)(=O)c4cccs4)cc3C(=O)N([C@H](C)CO)C[C@@H]2C)cc1	7890	–
C[C@H](CO)N1C[C@H](C)[C@H](CN(C)CC2CCCCC2)Oc2c(NC(=O)Nc3ccc4c(c3)OCO4)cccc2C1=O	2550	–
Cc1c(Cc2ccccc2)c(=O)oc2cc(O)ccc12	–	activity increase (activation) (at 11 µM (top of the series)): -39.3% (inactive)
C[C@@H]1CCCCO[C@@H](CN(C)C(=O)CCC(F)(F)F)[C@@H](C)CN([C@@H](C)CO)C(=O)c2cc(NS(=O)(=O)c3ccccc3)ccc2O1	1730	–
CCCN(C)C[C@@H]1OCCCC[C@@H](C)Oc2ccc(NS(=O)(=O)c3ccc(C)cc3)cc2C(=O)N([C@H](C)CO)C[C@@H]1C	1420	–
CN1CCN(Cc2c(O)ccc3cc(-c4ccccn4)c(=O)oc23)CC1	–	activity increase (activation) (at 5.6 µM (top of the series)): -103% (inactive)
C[C@H]1CN([C@@H](C)CO)C(=O)c2cccc(NC(=O)Nc3ccc(F)cc3)c2O[C@@H]1CN(C)C(=O)Nc1ccc2c(c1)OCO2	5560	–
COc1ccc(S(=O)(=O)Nc2ccc3c(c2)C(=O)N([C@@H](C)CO)C[C@H](C)[C@H](CN(C)C)OCCCC[C@@H](C)O3)cc1	419	–
COc1ccc(NC(=O)Nc2ccc3c(c2)C(=O)N([C@H](C)CO)C[C@@H](C)[C@H](CN(C)Cc2ccc(C(=O)O)cc2)OCCCC[C@@H](C)O3)cc1	3300	–
